The record followed here is US7723070B2, “Overexpression of aminoacyl-tRNA synthetases for efficient production of engineered proteins containing amino acid analogues” (California Institute of Technology, priority 2000, dated 2010).

“Also recorded” adds a separate entry of the source.

The target in the test is T1, methionyl tRNA synthetase (MetRS) (Escherichia coli, UniProt P00959).
T1 sequence (P00959 1-548 limits assumed): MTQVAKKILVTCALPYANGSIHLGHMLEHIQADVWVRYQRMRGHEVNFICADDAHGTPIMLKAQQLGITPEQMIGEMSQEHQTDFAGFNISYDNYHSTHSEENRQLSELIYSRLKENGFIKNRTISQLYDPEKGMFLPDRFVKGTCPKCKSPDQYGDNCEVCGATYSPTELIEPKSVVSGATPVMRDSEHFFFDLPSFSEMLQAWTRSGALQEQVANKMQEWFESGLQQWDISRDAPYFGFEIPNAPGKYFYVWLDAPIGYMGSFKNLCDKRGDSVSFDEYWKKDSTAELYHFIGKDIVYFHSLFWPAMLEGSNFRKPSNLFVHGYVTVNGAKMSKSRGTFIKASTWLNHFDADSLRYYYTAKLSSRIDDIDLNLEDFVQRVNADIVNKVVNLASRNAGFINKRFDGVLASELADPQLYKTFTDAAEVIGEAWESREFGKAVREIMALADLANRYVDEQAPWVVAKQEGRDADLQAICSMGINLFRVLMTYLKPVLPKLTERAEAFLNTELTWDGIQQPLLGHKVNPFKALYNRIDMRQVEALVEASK
Kind of test: ATP-PPi exchange assay: activation of methionine and methionine analogues by MetRS. Type of test: biochemical, E. coli. Further details: The fully active, truncated form of methionyl tRNA synthetase (MetRS) was purified from overnight cultures of JM101 cells carrying the plasmid pGG3; made in house; host or cells: E. coli JM101 carrying plasmid pGG3. The following applies: for fold lower kcat/Km (less efficiently activated) than methionine: relative to methionine. An excerpt:
The fully active, truncated form of methionyl tRNA synthetase (MetRS) was purified from overnight cultures of JM101 cells carrying the plasmid pGG3. (The plasmid, which encodes the tryptic fragment of MetRS, Ghosh, G.; Brunie, S.; Schulman, L. H. J. Biol. Chem. 1991, 266, 17136-17141). The enzyme was purified by size exclusion chromotography as previously described (Mellot, P.; Mechulam, Y.; LeCorre, D.; Blanquet, S.; Fayat, G. J. Mol. Biol. 1989, 208, 429). Activation of methionine analogues by MetRS was assayed via the amino-acid-dependent ATP-PPi exchange reaction, also as previously described (Mellot, P.; Mechulam, Y.; LeCorre, D.; Blanquet, S.; Fayat, G. J. Mol. Biol. 1989, 208, 429; Blanquet, S.; Fayat, G.; Waller, J.-P. Eur. J. Biochem. 1974, 44, 343; Ghosh, G.; Pelka, H.; Schulman, L. H. Biochemistry 1990, 29, 2220). The assay, which measures the ^32P-radiolabeled ATP formed by the enzyme-catalyzed exchange of ^32P-pyrophosphate (PPi) into ATP, was conducted in 150 μl of reaction buffer (pH 7.6, 20 mM imidazole; 0.1 mM EDTA, 10 mM β-mercaptoethanol, 7 mM MgCl2, 2 mM ATP, 0.1 mg/ml BSA, and 2 mM PPi (in the form of sodium pyrophosphate with a specific activity of approximately 0.18 TBq/mole)). […] Kinetic parameters for analogue 5 were obtained with an enzyme concentration of 75 nM and analogue concentrations of 100 μM to 10 mM. Parameters for methionine were obtained by using concentrations ranging from 10 μM to 1 mM. […] Aliquots of 20 μl were removed from the reaction mixture at various time points and were quenched in 0.5 ml of a solution comprising 200 mM PPi, 7% w/v HClO4, and 3% w/v activated charcoal. The charcoal was rinsed twice with 0.5 mL of a 10 mM PPi, 0.5% HClO4 solution and was then resuspended in 0.5 mL of this solution and counted via liquid scintillation methods. Kinetic constants were calculated by nonlinear regression analysis.
The fully active, truncated form of MetRS was purified from overnight cultures of JM101 cells carrying the plasmid pGG3. The enzyme was purified by size exclusion chromotography as previously described (P. Mellot, Y. Mechulam, D. LeCorre, S. Blanquet, G. Fayat, J. Mol. Biol. 1989, 208, 429-443). Activation of methionine analogues by MetRS was assayed at 25° C. via the amino acid-dependent ATP-PPi exchange reaction, also as described in Example I (G. Ghosh, H. Pelka, L. H. Schulman, Biochemistry 1990, 29, 2220-2225). […] Kinetic parameters for analogue 5 were obtained with an enzyme concentration of 50 nM and analogue concentrations of 100 μM to 10 mM. Kinetic parameters for analogue 11 were determined using an enzyme concentration of 50 nM and analogue concentrations ranging from 750 μM to 20 mM. Kinetic parameters for analogues 4, 7, 8, and 12 were obtained with an enzyme concentration of 50 or 75 nM and analogue concentrations ranging from 5 to 70 mM. Parameters for methionine were obtained by using concentrations ranging from 10 μM to 1 mM. […] Kinetic constants were calculated by nonlinear regression analysis.
The fully active, truncated form of MetRS was purified from overnight cultures of E. coli JM101 cells carrying the plasmid pGG3 (Kim, H. Y.; Ghosh, G.; Schulman, L. H.; Brunie, S.; Jakubowski, H. Proc. Natl. Acad. Sci. USA 1993, 90, 11553-11557), by using size exclusion methods previously reported (Mellot, P.; Mechulam, Y.; LeCorre, D.; Blanquet, S.; Fayat, G. J. Mol. Biol. 1989, 208, 429-443). Purified enzyme solutions (in 10 mM phosphate, pH 6.7, 10 mM (β-mercaptoethanol) were concentrated to at least 3 μM prior to their storage in 40% glycerol at −20° C. Concentrations of enzyme stocks were determined by the Bradford method, using samples of MetRS quantified by amino acid analysis as standards.

The mark [1] stands for this setting: 75 nM enzyme, 5 mM L-isomer, 20 minutes.
Where [2] appears, read: ATP-PPi exchange, purified truncated MetRS.

`C#CCCC(N)C(=O)O` (racemic) [Analogue 3, DL-homopropargylglycine]: the “fold lower kcat/Km (less efficiently activated) than methionine” value (from here on “fold lower kcat/Km”) is recorded as 500 fold. In addition, under setting [1], the “rate/level of PPi exchange (activation by MetRS), in words” value (from here on “rate/level of PPi exchange”) was “rates similar to that of norleucine (9); also recorded: several-fold lower than methionine”. As for `C/C=C/CC(N)C(=O)O` (racemic) [Analogue 5, trans-2-amino-4-hexenoic acid], the “fold lower kcat/Km” value is recorded as 4700 fold. Moreover, the “rate/level of PPi exchange” value under setting [1] is on record as “very slow exchange of PPi; also recorded: neither recognized efficiently; also recorded: slow exchange of PPi”.

The Km is the substrate concentration at which the rate is half of its maximum. As a reminder, the kcat is the number of substrate molecules converted per active site and unit of time at saturation. 2-butynylglycine [Analogue 11]: the “fold lower kcat/Km” value is 13825 fold. Besides, the “rate/level of PPi exchange” value under setting [1] is listed as “very slow exchange of PPi; also recorded: slow exchange of PPi”. Besides, under setting [2], the Km was 38.6 mM and the kcat turned out to be 1.51 ± 0.5 s⁻¹. Regarding `C/C=C\CC(N)C(=O)O` (racemic) [Analogue 4, cis-2-amino-4-hexenoic acid], the “rate/level of PPi exchange” value under setting [1] was “does not cause measurable exchange of PPi; also recorded: very slow exchange of PPi”. Turning to `CCCC[C@H](N)C(=O)O` [Analogue 9, L-norleucine], the “fold lower kcat/Km” value is listed as 1050 fold.

For the compound `CCC[C@H](N)C(=O)O` [Analogue 8, L-norvaline], under setting [1], the “rate/level of PPi exchange” value is “very slow exchange of PPi”.

Consider `CSCC[C@H](N)C(=O)O` [Analogue 1, L-methionine, reference compound], for which, under setting [1], the “amount of PPi exchanged at a reaction time of 20 minutes” value amounted to 9 mmol. Regarding `C=CCCC(N)C(=O)O` (racemic) [Analogue 2, DL-2-amino-5-hexenoic acid], the “fold lower kcat/Km” value is reported as 1850 fold. Besides, the “rate/level of PPi exchange” value under setting [1] was “rates similar to that of norleucine (9); also recorded: several-fold lower than methionine”.

On to `C=CCC(N)C(=O)O` (stereo not shown) [Analogue 12, allylglycine], for which the “rate/level of PPi exchange” value under setting [1] is “very slow exchange of PPi”. On to `CCCCCC(N)C(=O)O` (racemic) [Analogue 7, DL-2-aminoheptanoic acid], for which, under setting [1], the “rate/level of PPi exchange” value was “very slow exchange of PPi”.
